Laboratory results: US5389627A, “Cephem compounds” (priority 1993, dated 1995)
Values after ≈ are worked out from the molar mass of the structure shown.

Tests used:
Assay in all cases: In vitro antibacterial activity, minimum inhibitory concentration
Assay type in all cases: cell-based
P.mirabilis ATCC25933 = settings: Proteus mirabilis; P.mirabilis ATCC25933; read-out: Minimum Inhibitory Concentration (MIC)
Description: (§1) As reference compounds, Cefotaxime (CTX), Ceftazidime (CAZ) and Cefpirome (CPR) were employed.

E.coli ATCC25922 = settings: Escherichia coli; E.coli ATCC25922; read-out: Minimum Inhibitory Concentration (MIC)
Description: as §1

S.pyogenes C4003 = settings: Streptococcus pyogenes; S.pyogenes C4003; read-out: Minimum Inhibitory Concentration (MIC)
Description: as §1

E.cloacae C4009 = settings: Enterobacter cloacae; E.cloacae C4009; read-out: Minimum Inhibitory Concentration (MIC)
Description: as §1

S.Faecalis ATCC29212 = settings: Enterococcus faecalis
Description: as §1

S.aureus C4036 = settings: Staphylococcus aureus; S.aureus C4036; read-out: Minimum Inhibitory Concentration (MIC)
Description: as §1

MRSA C2208 = settings: Staphylococcus aureus; MRSA C2208; read-out: Minimum Inhibitory Concentration (MIC)
Description: as §1

S.marcescens C1052 = settings: Serratia marcescens; S.marcescens C1052; read-out: Minimum Inhibitory Concentration (MIC)
Description: as §1

P.aeruginosa ATCC27853 = settings: Pseudomonas aeruginosa; P.aeruginosa ATCC27853; read-out: Minimum Inhibitory Concentration (MIC)
Description: as §1

E.cloacae C4008 = settings: Enterobacter cloacae; E.cloacae C4008; read-out: Minimum Inhibitory Concentration (MIC)
Description: as §1

S.typhimurium C4045 = settings: Salmonella enterica; S.typhimurium C4045; read-out: Minimum Inhibitory Concentration (MIC)
Description: as §1

S.marcescens ATCC27117 = settings: Serratia marcescens; S.marcescens ATCC27117; read-out: Minimum Inhibitory Concentration (MIC)
Description: as §1

P.rettgeri ATCC9919 = settings: Providencia rettgeri; P.rettgeri ATCC9919; read-out: Minimum Inhibitory Concentration (MIC)
Description: as §1

S.epidermidis ATCC12228 = settings: Staphylococcus epidermidis; S.epidermidis ATCC12228; read-out: Minimum Inhibitory Concentration (MIC)
Description: as §1

P.aeruginosa C4070 = settings: Pseudomonas aeruginosa; P.aeruginosa C4070; read-out: Minimum Inhibitory Concentration (MIC)
Description: as §1

S.aureus Smith = settings: Staphylococcus aureus; S.aureus Smith; read-out: Minimum Inhibitory Concentration (MIC)
Description: as §1

K.pneumoniae ATCC10031 = settings: Klebsiella pneumoniae; K.pneumoniae ATCC10031; read-out: Minimum Inhibitory Concentration (MIC)
Description: as §1

S.aureus ATCC29213 = settings: Staphylococcus aureus; S.aureus ATCC29213; read-out: Minimum Inhibitory Concentration (MIC)
Description: as §1

E.coli C4002 = settings: Escherichia coli; E.coli C4002; read-out: Minimum Inhibitory Concentration (MIC)
Description: as §1

E.coli ATCC10536 = settings: Escherichia coli; E.coli ATCC10536; read-out: Minimum Inhibitory Concentration (MIC)
Description: as §1

K.pneumoniae C1040 = settings: Klebsiella pneumoniae; K.pneumoniae C1040; read-out: Minimum Inhibitory Concentration (MIC)
Description: as §1

P.aeruginosa C2027 = settings: Pseudomonas aeruginosa; P.aeruginosa C2027; read-out: Minimum Inhibitory Concentration (MIC)
Description: as §1

K.oxytoca C4022 = settings: Klebsiella oxytoca; K.oxytoca C4022; read-out: Minimum Inhibitory Concentration (MIC)
Description: as §1

S.pyogenes ATCC 8668 = settings: Streptococcus pyogenes, ATCC8668; S.pyogenes ATCC 8668; read-out: Minimum Inhibitory Concentration (MIC)
Description: as §1

P.aeruginosa ATCC10145 = settings: Pseudomonas aeruginosa; P.aeruginosa ATCC10145; read-out: Minimum Inhibitory Concentration (MIC)
Description: as §1

CO/N=C(\C(=O)N[C@@H]1C(=O)N2C(C(=O)O)=C(COC(C)=O)CS[C@H]12)c1csc(N)n1 [CTX, Cefotaxime, reference compound]
MIC (P.mirabilis ATCC25933): 0.025 µg/mL (≈ 0.0549 µM)
MIC (E.coli ATCC25922): 0.1 µg/mL (≈ 0.22 µM)
MIC (S.pyogenes C4003): 0.004 µg/mL (≈ 0.00878 µM)
MIC (E.cloacae C4009): 0.1 µg/mL (≈ 0.22 µM)
MIC (S.Faecalis ATCC29212): > 100 µg/mL
MIC (S.aureus C4036): 1.56 µg/mL (≈ 3.43 µM)
MIC (MRSA C2208): > 100 µg/mL
MIC (S.marcescens C1052): 0.2 µg/mL (≈ 0.439 µM)
MIC (P.aeruginosa ATCC27853): 25 µg/mL (≈ 54.9 µM)
MIC (E.cloacae C4008): 0.025 µg/mL (≈ 0.0549 µM)
MIC (S.typhimurium C4045): 0.05 µg/mL (≈ 0.11 µM)
MIC (S.marcescens ATCC27117): 0.1 µg/mL (≈ 0.22 µM)
MIC (P.rettgeri ATCC9919): 0.004 µg/mL (≈ 0.00878 µM)
MIC (S.epidermidis ATCC12228): 0.78 µg/mL (≈ 1.71 µM)
MIC (P.aeruginosa C4070): 50 µg/mL (≈ 110 µM)
MIC (S.aureus Smith): 1.56 µg/mL (≈ 3.43 µM)
MIC (K.pneumoniae ATCC10031): 0.002 µg/mL (≈ 0.00439 µM)
MIC (S.aureus ATCC29213): 1.56 µg/mL (≈ 3.43 µM)
MIC (E.coli C4002): 0.05 µg/mL (≈ 0.11 µM)
MIC (E.coli ATCC10536): 0.025 µg/mL (≈ 0.0549 µM)
MIC (K.pneumoniae C1040): 0.025 µg/mL (≈ 0.0549 µM)
MIC (P.aeruginosa C2027): 3.13 µg/mL (≈ 6.87 µM)
MIC (K.oxytoca C4022): 0.78 µg/mL (≈ 1.71 µM)
MIC (S.pyogenes ATCC 8668): 0.004 µg/mL (≈ 0.00878 µM)
MIC (P.aeruginosa ATCC10145): 25 µg/mL (≈ 54.9 µM)

CO/N=C(\C(=O)N[C@@H]1C(=O)N2C(C(=O)[O-])=C(C[n+]3ccc4c(c3)NC(=C[N+](=O)[O-])N4)CS[C@H]12)c1csc(N)n1 [Ex. 1]
MIC (P.mirabilis ATCC25933): 0.1 µg/mL (≈ 0.174 µM)
MIC (E.coli ATCC25922): 0.1 µg/mL (≈ 0.174 µM)
MIC (S.pyogenes C4003): 0.007 µg/mL (≈ 0.0122 µM)
MIC (E.cloacae C4009): 0.2 µg/mL (≈ 0.349 µM)
MIC (S.Faecalis ATCC29212): > 100 µg/mL
MIC (S.aureus C4036): 1.56 µg/mL (≈ 2.72 µM)
MIC (MRSA C2208): > 100 µg/mL
MIC (S.marcescens C1052): 0.2 µg/mL (≈ 0.349 µM)
MIC (P.aeruginosa ATCC27853): 50 µg/mL (≈ 87.2 µM)
MIC (E.cloacae C4008): 0.05 µg/mL (≈ 0.0872 µM)
MIC (S.typhimurium C4045): 0.1 µg/mL (≈ 0.174 µM)
MIC (S.marcescens ATCC27117): 0.1 µg/mL (≈ 0.174 µM)
MIC (P.rettgeri ATCC9919): 0.013 µg/mL (≈ 0.0227 µM)
MIC (S.epidermidis ATCC12228): 0.78 µg/mL (≈ 1.36 µM)
MIC (P.aeruginosa C4070): > 100 µg/mL
MIC (S.aureus Smith): 0.78 µg/mL (≈ 1.36 µM)
MIC (K.pneumoniae ATCC10031): 0.025 µg/mL (≈ 0.0436 µM)
MIC (S.aureus ATCC29213): 1.56 µg/mL (≈ 2.72 µM)
MIC (E.coli C4002): 0.1 µg/mL (≈ 0.174 µM)
MIC (E.coli ATCC10536): 0.05 µg/mL (≈ 0.0872 µM)
MIC (K.pneumoniae C1040): 0.025 µg/mL (≈ 0.0436 µM)
MIC (P.aeruginosa C2027): 6.25 µg/mL (≈ 10.9 µM)
MIC (K.oxytoca C4022): 6.25 µg/mL (≈ 10.9 µM)
MIC (S.pyogenes ATCC 8668): 0.007 µg/mL (≈ 0.0122 µM)
MIC (P.aeruginosa ATCC10145): 50 µg/mL (≈ 87.2 µM)

CO/N=C(\C(=O)N[C@@H]1C(=O)N2C(C(=O)[O-])=C(C[n+]3ccc4c(c3)NC(=C[N+](=O)[O-])N4)CS[C@H]12)c1nsc(N)n1 [Ex. 2, 7-β-[(Z)-2-(5-Amino-1,2,4-thiadiazol-3-yl)-2-methoxyiminoacetamido]-3-[2-(1H,3H)-nitromethylen-yl-imidazo[4,5-c]-pyridiniummethyl]-3-cephem-4-carboxylate]
MIC (P.mirabilis ATCC25933): 0.1 µg/mL (≈ 0.174 µM)
MIC (E.coli ATCC25922): 0.1 µg/mL (≈ 0.174 µM)
MIC (S.pyogenes C4003): 0.007 µg/mL (≈ 0.0122 µM)
MIC (E.cloacae C4009): 0.2 µg/mL (≈ 0.348 µM)
MIC (S.Faecalis ATCC29212): > 100 µg/mL
MIC (S.aureus C4036): 3.13 µg/mL (≈ 5.45 µM)
MIC (MRSA C2208): > 100 µg/mL
MIC (S.marcescens C1052): 0.2 µg/mL (≈ 0.348 µM)
MIC (P.aeruginosa ATCC27853): > 100 µg/mL
MIC (E.cloacae C4008): 0.05 µg/mL (≈ 0.087 µM)
MIC (S.typhimurium C4045): 0.2 µg/mL (≈ 0.348 µM)
MIC (S.marcescens ATCC27117): 0.2 µg/mL (≈ 0.348 µM)
MIC (P.rettgeri ATCC9919): 0.025 µg/mL (≈ 0.0435 µM)
MIC (S.epidermidis ATCC12228): 1.56 µg/mL (≈ 2.72 µM)
MIC (P.aeruginosa C4070): > 100 µg/mL
MIC (S.aureus Smith): 3.13 µg/mL (≈ 5.45 µM)
MIC (K.pneumoniae ATCC10031): 0.05 µg/mL (≈ 0.087 µM)
MIC (S.aureus ATCC29213): 1.56 µg/mL (≈ 2.72 µM)
MIC (E.coli C4002): 0.1 µg/mL (≈ 0.174 µM)
MIC (E.coli ATCC10536): 0.05 µg/mL (≈ 0.087 µM)
MIC (K.pneumoniae C1040): 0.05 µg/mL (≈ 0.087 µM)
MIC (P.aeruginosa C2027): 6.25 µg/mL (≈ 10.9 µM)
MIC (K.oxytoca C4022): 12.5 µg/mL (≈ 21.8 µM)
MIC (S.pyogenes ATCC 8668): 0.013 µg/mL (≈ 0.0226 µM)
MIC (P.aeruginosa ATCC10145): 50 µg/mL (≈ 87 µM)
